The structures appear in SMILES notation. Structures can show the parent of a compound that is named as a salt.

Broadly, the EC50 is the midpoint of the concentration-response curve. A lower EC50 goes with a more potent agent.

The experiment concerns the target postjunctional alpha1 receptors. Put plainly: postjunctional alpha1 agonist activity (EC50), isolated segment of rabbit ear artery. Particulars: smooth muscle tension, dose producing 50% of the maximum response (norepinephrine). An excerpt:
The assay procedure is described by Steinsland et al. J. Pharm. Exp. Ther. 184:346-356, 1973. Briefly, this test comprises sacrificing a white rabbit and removing the central ear artery. The artery is cannulated at both ends and placed in a perfusion chamber. The artery is simultaneously perfused intraluminally and superfused extraluminally with Krebs solution. The compound to be tested can be administered by means of either the intraluminal or extraluminal flow. The sympathetic nerve is excited at four minute intervals by field stimulation. The selective alpha1 agonist activity is measured as the ability to increase perfusion pressure (mm Hg.) without inhibiting response to sympathetic nerve stimulation.
A quantitation of postjunctional alpha1 agonist activity (EC50) is determined for compounds showing activity in the above test. This is accomplished by employing an isolated segment of rabbit ear artery. The segment is mounted in a chamber superfused with oxygenated Krebs solution. The segment is suspended between two tungsten wires, one attached to the chamber, the other to a force-displacement transducer so that smooth muscle tension can be measured directly. Before administration of the test drug, norepinephrine is administered in increasing concentration (10^-8 M to 3×10^-6 M) to determine maximum response of the artery. […]

`COc1ccc(OC)c2c1CCC1NCCCC21` (stereo not shown) [7,10-dimethoxy-1,2,3,4,4a,5,6,10-b-octahydro-benzo[f]quinoline hydrochloride]: the midpoint of the response, the EC50, lay at 190 nM.

Values taken from US4341786A, “Pharmaceutical compositions and method of producing central alpha1 agonist activity utilizing octahydrobenzo[f]quinoline compounds” (SmithKline Corporation, priority 1981, dated 1982).
